These results are taken from paper PMC5321607 (ACS infectious diseases, 2016).

For test [1], the system named is P. aeruginosa ATCC 27853. In words: MIC by broth microdilution. In kind it is cell-based. The following applies: CaMHB, 18 h, 37°C.
Test [2] concerns A. baumannii ATCC 19606. In words: MIC by broth microdilution. In kind it is cell-based. The following applies: CaMHB, 18 h, 37°C.
The test system of test [3] is P. aeruginosa FADDI-PA070. Nature of the test: MIC by broth microdilution. The conditions noted are these: CaMHB, 18 h, 37°C. Type of test: cell-based.
The subject of test [4] is A. baumannii FADDI-AB156. Nature of the test: MIC by broth microdilution. In kind it is cell-based. The conditions noted are these: CaMHB, 18 h, 37°C.
Test [5] has as its system P. aeruginosa FADDI-PA001. Nature of the test: MIC by broth microdilution. Type of test: cell-based. The conditions noted are these: CaMHB, 18 h, 37°C.
Test [6] relates to K. pneumoniae FADDI-KP032. In words: MIC by broth microdilution. The following applies: CaMHB, 18 h, 37°C. Type of test: cell-based.
For test [7], the system named is P. aeruginosa FADDI-PA090. In words: MIC by broth microdilution. Type of test: cell-based. The following applies: CaMHB, 18 h, 37°C.
For test [8], the system named is E. cloacae FADDI-EC001. Nature of the test: MIC by broth microdilution. Type of test: cell-based. The conditions noted are these: CaMHB, 18 h, 37°C.
Test [9] relates to K. pneumoniae FADDI-KP027. Nature of the test: MIC by broth microdilution. Type of test: cell-based. The following applies: CaMHB, 18 h, 37°C.
For test [10], the system named is E. cloacae FADDI-EC003. Nature of the test: MIC by broth microdilution. In kind it is cell-based. The following applies: CaMHB, 18 h, 37°C.
Test [11] concerns P. aeruginosa FADDI-PA060. In words: MIC by broth microdilution. The following applies: CaMHB, 18 h, 37°C. In kind it is cell-based.
The subject of test [12] is E. cloacae FADDI-EC006. In words: MIC by broth microdilution. In kind it is cell-based. The following applies: CaMHB, 18 h, 37°C.
The subject of test [13] is A. baumannii ATCC 17978. In words: MIC by broth microdilution. The conditions noted are these: CaMHB, 18 h, 37°C. Type of test: cell-based.
Test [14] relates to A. baumannii FADDI-AB110. Nature of the test: MIC by broth microdilution. In kind it is cell-based. The conditions noted are these: CaMHB, 18 h, 37°C.
The test system of test [15] is A. baumannii FADDI-AB167. In words: MIC by broth microdilution. The conditions noted are these: CaMHB, 18 h, 37°C. In kind it is cell-based.
The subject of test [16] is K. pneumoniae FADDI-KP012. Nature of the test: MIC by broth microdilution. Type of test: cell-based. The following applies: CaMHB, 18 h, 37°C.
For test [17], the system named is P. aeruginosa FADDI-PA025. Nature of the test: MIC by broth microdilution. In kind it is cell-based. The conditions noted are these: CaMHB, 18 h, 37°C.
Test [18] deals with K. pneumoniae FADDI-KP003. In words: MIC by broth microdilution. Type of test: cell-based. The conditions noted are these: CaMHB, 18 h, 37°C.
In test [19] the target is anti-polymyxin B mouse IgM monoclonal antibody (clone 45). Type of test: binding. The conditions noted are these: SPR; for Kd: Biacore T200, 25°C, HBS-EP+, 1:1 kinetic fit or steady-state.

As for “Octanoyl-Dab-Thr-Dab-Dab ^*-Dab-D-Leu-Leu-Dab-Dab-Thr ^* [Colistin]”, the MIC in test [1] was 1 µg/mL; in test [2] it was 1 µg/mL; in test [3], greater than 128 µg/mL; in test [4] it was 16 µg/mL; in test [5], 1 µg/mL; in test [6], 1 µg/mL. The MIC was 8 µg/mL in test [7]; 0.25 µg/mL in [8]; greater than 128 µg/mL in test [9]; less than 0.125 µg/mL in test [10]; greater than 128 µg/mL in test [11]; less than 0.125 µg/mL in test [12]. The MIC in [13] was 0.5 µg/mL; in test [14], 0.5 µg/mL; in test [15], 8 µg/mL; in test [16], 32 µg/mL; in [17], 2 µg/mL; in test [18], 128 µg/mL. Also, the Kd in [19] worked out at 560 nM. Also, the “reduction in mAb binding affinity” value in test [19] (compared to polymyxin B (FADDI-206/207: polymyxin B and colistin)) was found to be 2 fold.
For the substance “Octanoyl-Dab-Thr-Dab-Dab ^*-Dab-D-Phe-Leu-Dab-Dab-Thr ^* [Polymyxin B]”, the MIC in test [1] was 1 µg/mL; in [2], 1 µg/mL; in [3], 32 µg/mL; in test [4] it was 8 µg/mL; in [5], 1 µg/mL; in test [6] it was less than 0.125 µg/mL. Further, the MIC in test [7] was 4 µg/mL; in test [8], 0.25 µg/mL; in [9], 128 µg/mL; in test [10], 0.5 µg/mL; in test [11], greater than 32 µg/mL; in test [12], 0.5 µg/mL. The MIC in test [13] is 1 µg/mL; in [14], 0.5 µg/mL; in test [15], 16 µg/mL; in test [16], 16 µg/mL; in test [17] it was 1 µg/mL; in test [18], greater than 32 µg/mL. Binding in test [19] was put at a Kd of 260 nM.
